Where two headings read alike, the source gives them in different places.
Experiments:
phospho‐MEK1 = test system: phospho‐MEK1; parameters: method as in PMID 23971497; conditions: in vitro; read-out: half maximal inhibitory concentration to inhibit phospho‐MEK1; cited from earlier work
[1] = parameters: method as in PMID 23971497; conditions: human plasma; cited from earlier work
CYP3A4 [2] = test system: CYP3A4; parameters: method as in PMID 24748562; conditions: in vitro; read-out: EC50 for CYP3A4 mRNA induction; cited from earlier work
CYP3A4 [3] = test system: CYP3A4; parameters: method as in PMID 26347206, PMID 31445021; conditions: in vitro; cited from earlier work
[4] = parameters: method as in Novartis, unpublished data; conditions: ref Novartis, unpublished data; cited from earlier work
CYP2A6 = test system: CYP2A6; parameters: method as in PMID 26347206, PMID 31445021; conditions: in vitro; cited from earlier work
[5] = cited from earlier work
[6] = Steady-state plasma PK of trametinib and metabolite M5 when coadministered with NE/EE; conditions: trametinib 2 mg daily + NE/EE, day 21, plasma
Experimental: Both regimens were continued until day 21 (Figure 1).
Extracts were analyzed using LC‐MS/MS.

CYP2B6 = test system: CYP2B6; parameters: method as in PMID 26347206, PMID 31445021; conditions: in vitro; cited from earlier work
[7] = overall study, N = 19
UGT1A1 = test system: UGT1A1; parameters: method as in PMID 26347206, PMID 31445021; conditions: in vitro; cited from earlier work
CYP2D6 = test system: CYP2D6; parameters: method as in PMID 26347206, PMID 31445021; conditions: in vitro; cited from earlier work
CYP3A4 [8] = conditions: in vitro, cited from earlier work
CYP1A2 = test system: CYP1A2; parameters: method as in PMID 26347206, PMID 31445021; conditions: in vitro; cited from earlier work
clinical = conditions: female, human, plasma, oral
[9] = Steady-state plasma PK of NE and EE, NE/EE given alone or with trametinib (phase 1 DDI study); conditions: for AUC(0-t): AUClast; for AUC: AUCtau
[10] = basis for study design, no reference given; cited from earlier work
[11] = female, human, plasma, oral, adjusted geo‐mean, NE/EE + T, linear mixed-effects model
[12] = female, human, plasma, oral, adjusted geo‐mean, NE/EE alone, linear mixed-effects model
[13] = female, human, plasma, oral, geo‐mean (geo‐CV%), NE/EE alone, day 5, plasma
[14] = female, human, plasma, oral, mean (SD), NE/EE alone, day 5, plasma

SMILES: Cc1c(=O)n(C)c(Nc2ccc(I)cc2F)c2c(=O)n(C3CC3)c(=O)n(-c3cccc(N)c3)c12 [M5]
- IC50 (phospho‐MEK1): 9 ± 1 nM
- share of drug‐related material in plasma [1]: < 11%

SMILES: CC(=O)Nc1cccc(-n2c(=O)n(C3CC3)c(=O)c3c(Nc4ccc(I)cc4F)n(C)c(=O)c(C)c32)c1 [trametinib, Trametinib]
- IC50 (phospho‐MEK1): 7 ± 0.1 nM
- CYP3A4 inhibition (in words) (CYP3A4 [3]): no inhibitory activity
- findings in animal reproduction studies (in words) [4]: maternal and developmental toxicities
- CYP2A6 inhibition (in words) (CYP2A6): no inhibitory activity
- peak:trough ratio ([5]; 2 mg once daily): 1.8
- time to reach Cmax (tmax) ([5]; 2 mg once daily): 1.5 h
- clinically relevant systemic exposure (concentration) ([5]; based on the Cmax of 22.2 ng/mL): ≈ 0.04 μM
- intrasubject variability [5]: more than 30%
- geo‐mean AUC0‐24 ([5]; trametinib 2 mg in the absence of COC): 370 ng·h/mL
- Cmax, geo‐mean (geo‐CV%) [6]: 27.4 (35.4) ng/mL
- CYP2B6 inhibition (in words) (CYP2B6): no inhibitory activity
- AE of special interest: patients with bleeding events [7]: 15.8%
- AE of special interest: patients with cardiac‐related event [7]: 5.3%
- AE of special interest: patients with hepatic disorders [7]: 26.3%
- AE of special interest: patients with hypertension [7]: 15.8%
- AE of special interest: patients with skin toxicity [7]: 63.2%
- UGT1A1 inhibition (in words) (UGT1A1): inhibitor
- CYP2D6 inhibition (in words) (CYP2D6): no inhibitory activity
- maximal effect of CYP3A4 induction, % of that of rifampicin (CYP3A4 [8]; hepatocytes, ref Novartis, unpublished data): 69%
- EC50 (CYP3A4 [8]; hepatocytes, ref Novartis, unpublished data, read-out: EC50 for CYP3A4 induction): 1700 nM
- CYP3A4 induction (in words) (CYP3A4 [8]): low‐level inducer
- CYP1A2 inhibition (in words) (CYP1A2): no inhibitory activity

SMILES: C#C[C@]1(O)CC[C@H]2[C@@H]3CCC4=CC(=O)CC[C@@H]4[C@H]3CC[C@@]21C [NE, norethindrone]
- Tmax (clinical): 1.02 h
- half-life (clinical): 9.06 h
- CL/F, geo‐mean (geo‐CV%) ([9]; NE/EE alone, day 5, plasma): 9.41 (76.9) L/h
- Ctrough, geo‐mean (geo‐CV%) ([9]; NE/EE alone, day 5, plasma): 1060 (165.5) pg/mL
- Ctrough, mean (SD) ([9]; NE/EE alone, day 5, plasma): 1940 (2850) pg/mL
- tmax, median (range) ([9]; NE/EE alone, day 5, plasma): 1.00 (0.50‐24) h
- AUC(0-t) [9, 11]: 127 ng·h/mL
- AUC(0-t) [9, 12]: 106 ng·h/mL
- AUC [9, 11]: 131 ng·h/mL
- AUC [9, 12]: 110 ng·h/mL
- Cmax [9, 11]: 17.1 ng/mL
- Cmax [9, 12]: 15.2 ng/mL
- half-life ([9]; female, human, plasma, oral, t½, median (range), NE/EE alone, day 5, plasma): 9.22 h

SMILES: C#C[C@]1(O)CC[C@H]2[C@@H]3CCc4cc(O)ccc4[C@H]3CC[C@@]21C [EE, ethinyl estradiol]
- mean t1/2 [10]: 20 h
- Ctrough, mean (SD) ([9]; NE/EE alone, day 5, plasma): 22.2 (12.6) pg/mL
- AUCtau, adjusted geo‐mean ([9]; NE/EE alone, linear mixed-effects model): 1.06 ng·h/mL
- AUC(0-t) [9, 11]: 1.07 ng·h/mL
- AUC(0-t) [9, 12]: 1.02 ng·h/mL
- AUC(0-t) [9, 13]: 0.983 ng·h/mL
- AUC(0-t) [9, 14]: 1.15 ng·h/mL
- AUC [9, 11]: 1.12 ng·h/mL
- AUC ([9]; female, human, plasma, oral, geo‐mean (geo‐CV%), NE/EE alone (1 mg NE/0.035 mg EE daily), day 5, plasma): 1.02 ng·h/mL
- AUC [9, 14]: 1.16 ng·h/mL
- Cmax [9, 11]: 0.128 ng/mL
- Cmax [9, 12]: 0.14 ng/mL
- Cmax [9, 13]: 0.135 ng/mL
- Cmax [9, 14]: 0.151 ng/mL
- Tmax ([9]; female, human, plasma, oral, tmax, median (range), NE/EE alone, day 5, plasma): 0.98 h

Reference: publication PMC9304124 (Clinical Pharmacology in Drug Development, 2022)
